{
  "source": "paper PMC8371461",
  "about": "(Frontiers in Pharmacology, 2021)",
  "key": {"CAMK2G": {"molecular_target": "T1, CAMK2G (Homo sapiens, UniProt Q13555)", "T1 construct": "purchased DiscoverX (KINOMEscan)", "assay": "kinome scan", "type": "binding", "conditions": "10 µM"}, "CDK4-cyclinD1": {"molecular_target": "T2, CDK4-cyclinD1 (Homo sapiens, UniProt P11802)", "T2 construct": "purchased DiscoverX (KINOMEscan)", "assay": "kinome scan", "type": "binding", "conditions": "10 µM"}, "DAPK3": {"molecular_target": "T3, DAPK3 (Homo sapiens, UniProt O43293)", "T3 construct": "purchased DiscoverX (KINOMEscan)", "assay": "kinome scan", "type": "binding", "conditions": "10 µM"}, "DDR2": {"molecular_target": "T4, DDR2 (Homo sapiens, UniProt Q16832)", "T4 construct": "purchased DiscoverX (KINOMEscan)", "T4 sequence (Q16832 22-855)": "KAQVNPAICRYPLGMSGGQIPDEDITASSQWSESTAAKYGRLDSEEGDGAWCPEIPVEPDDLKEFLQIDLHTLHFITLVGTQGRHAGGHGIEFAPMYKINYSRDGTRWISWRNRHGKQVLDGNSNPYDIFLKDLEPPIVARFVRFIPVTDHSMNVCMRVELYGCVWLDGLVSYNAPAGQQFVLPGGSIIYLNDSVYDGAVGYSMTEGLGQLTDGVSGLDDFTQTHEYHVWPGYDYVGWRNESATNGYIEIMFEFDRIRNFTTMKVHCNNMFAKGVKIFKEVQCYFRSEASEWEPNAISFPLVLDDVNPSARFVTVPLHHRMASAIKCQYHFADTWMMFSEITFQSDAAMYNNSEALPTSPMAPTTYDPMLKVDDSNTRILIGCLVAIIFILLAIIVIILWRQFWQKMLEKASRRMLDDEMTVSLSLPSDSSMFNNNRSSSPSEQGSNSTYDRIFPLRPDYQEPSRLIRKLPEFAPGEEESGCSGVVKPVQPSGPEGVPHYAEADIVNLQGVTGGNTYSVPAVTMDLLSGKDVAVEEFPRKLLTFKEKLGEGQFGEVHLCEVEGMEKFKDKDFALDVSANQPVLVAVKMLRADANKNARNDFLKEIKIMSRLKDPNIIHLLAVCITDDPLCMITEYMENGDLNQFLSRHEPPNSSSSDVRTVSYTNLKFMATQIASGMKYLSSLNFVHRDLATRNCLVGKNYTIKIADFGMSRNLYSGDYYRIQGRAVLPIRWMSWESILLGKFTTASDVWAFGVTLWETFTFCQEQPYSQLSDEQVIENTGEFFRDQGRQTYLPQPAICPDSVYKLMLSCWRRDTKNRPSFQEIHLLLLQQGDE", "assay": "kinome scan", "type": "binding", "conditions": "10 µM"}, "EPHA7": {"molecular_target": "T5, EPHA7 (Homo sapiens, UniProt Q15375)", "T5 construct": "purchased DiscoverX (KINOMEscan)", "T5 sequence (Q15375 28-998)": "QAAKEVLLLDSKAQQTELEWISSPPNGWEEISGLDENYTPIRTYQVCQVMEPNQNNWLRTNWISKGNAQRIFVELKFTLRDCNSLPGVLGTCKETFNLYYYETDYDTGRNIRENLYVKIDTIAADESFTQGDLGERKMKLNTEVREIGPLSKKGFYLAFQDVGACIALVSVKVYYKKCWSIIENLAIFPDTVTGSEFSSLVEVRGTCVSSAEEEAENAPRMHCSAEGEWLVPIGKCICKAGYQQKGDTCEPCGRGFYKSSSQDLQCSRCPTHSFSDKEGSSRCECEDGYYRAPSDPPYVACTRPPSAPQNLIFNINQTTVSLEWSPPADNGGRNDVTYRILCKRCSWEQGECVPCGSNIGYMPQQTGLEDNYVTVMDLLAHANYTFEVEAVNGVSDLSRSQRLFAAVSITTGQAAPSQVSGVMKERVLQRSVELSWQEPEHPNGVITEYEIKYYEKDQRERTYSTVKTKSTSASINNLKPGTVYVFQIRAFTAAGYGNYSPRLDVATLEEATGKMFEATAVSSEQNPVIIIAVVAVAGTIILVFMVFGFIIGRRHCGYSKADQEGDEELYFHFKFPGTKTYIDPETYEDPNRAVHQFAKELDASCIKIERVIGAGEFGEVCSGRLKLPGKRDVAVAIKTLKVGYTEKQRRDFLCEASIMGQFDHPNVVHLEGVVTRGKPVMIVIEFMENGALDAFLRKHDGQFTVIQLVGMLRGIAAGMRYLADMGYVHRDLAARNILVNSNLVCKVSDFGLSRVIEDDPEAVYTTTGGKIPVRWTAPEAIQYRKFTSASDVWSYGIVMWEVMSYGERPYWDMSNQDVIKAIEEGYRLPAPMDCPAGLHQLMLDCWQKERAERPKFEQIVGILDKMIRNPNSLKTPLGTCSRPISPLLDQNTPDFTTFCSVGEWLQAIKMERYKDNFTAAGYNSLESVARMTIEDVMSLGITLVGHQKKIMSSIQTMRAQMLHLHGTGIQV", "assay": "kinome scan", "type": "binding", "conditions": "10 µM"}, "ERK8": {"molecular_target": "T6, ERK8 (Homo sapiens, UniProt Q8TD08)", "T6 construct": "purchased DiscoverX (KINOMEscan)", "assay": "kinome scan", "type": "binding", "conditions": "10 µM"}, "FLT3(K663Q)": {"molecular_target": "T7, FLT3(K663Q) (Homo sapiens, UniProt P36888, K663Q)", "T7 construct": "purchased DiscoverX (KINOMEscan)", "assay": "kinome scan", "type": "binding"}, "ITK": {"molecular_target": "T8, ITK (Homo sapiens, UniProt Q08881)", "T8 construct": "purchased DiscoverX (KINOMEscan)", "assay": "kinome scan", "type": "binding", "conditions": "10 µM"}, "JNK1": {"molecular_target": "T9, JNK1 (Homo sapiens, UniProt P45983)", "T9 construct": "purchased DiscoverX (KINOMEscan)", "assay": "kinome scan", "type": "binding", "conditions": "10 µM"}, "JNK2": {"molecular_target": "T10, JNK2 (Homo sapiens, UniProt P45984)", "T10 construct": "purchased DiscoverX (KINOMEscan)", "assay": "kinome scan", "type": "binding", "conditions": "10 µM"}, "MAP4K4": {"molecular_target": "T11, MAP4K4 (Homo sapiens, UniProt O95819)", "T11 construct": "purchased DiscoverX (KINOMEscan)", "assay": "kinome scan", "type": "binding", "conditions": "10 µM"}, "MTOR": {"molecular_target": "T12, MTOR (Homo sapiens, UniProt P42345)", "T12 construct": "purchased DiscoverX (KINOMEscan)", "assay": "kinome scan", "type": "binding", "conditions": "10 µM"}, "NEK3": {"molecular_target": "T13, NEK3 (Homo sapiens, UniProt P51956)", "T13 construct": "purchased DiscoverX (KINOMEscan)", "assay": "kinome scan", "type": "binding", "conditions": "10 µM"}, "CDC2L5": {"molecular_target": "T14, CDC2L5 (Homo sapiens, UniProt Q14004)", "T14 construct": "purchased DiscoverX (KINOMEscan)", "assay": "kinome scan", "type": "binding", "conditions": "10 µM", "procedure": "(§1) The kinome scan analysis was performed using the DiscoverX platform (www.discoverx.com). Briefly, T7 kinase-tagged phage strains are grown in parallel in 24-well or 96-well blocks in a BL21-derived E. coli host for 90 min until lysis. Lysates are centrifuged at 6,000 x g and filtered with a 0.2 µm filter to remove cell debris. Streptavidin-coated magnetic beads are treated with biotinylated kinase ligands for 30 min at room temperature to generate the affinity resin. Bound beads are blocked with excess biotin and washed with blocking buffer (SeaBlock (Pierce), 1% BSA, 0.05% Tween 20, and 1 mM DTT) to remove unbound ligand and reduce nonspecific phage binding. […] The final concentration of test compound is 10 µM. Assay plates are incubated at room temperature with shaking for 1 h. Affinity beads are treated four times with washing buffer (1X PBS, 0.05% Tween 20, and 1 mM DTT) to remove unbound phage. […] Q RT PCR is used to measure the amount of phage in each eluate (which is proportional to the amount of kinase bound). Data is presented as the percentage of kinase bound by 10 µM of the ligand compared to the DMSO only as a control.\n(§2) Hits are identified by an ultra-sensitive quantitative PCR detecting the specific DNA tag linked to each kinase (Supplementary Figure S2). The drug is used at a concentration of 10 µM and results are expressed as the percentage of signal (kinase PCR detection) with respect to DMSO control conditions. Thirteen hits were identified, with a signal reduction ranging from 0 to 27% (Table 3). Full raw data are presented in Supplementary Table S4. Interactions between 0 and 20% of reduction were considered to be the most significant ones. […] A sub-micromolar affinity (Kd<1 µM) was only seen with two PIKs (PIP4K2C, PI4KB) and GAK (Table 4). Inhibitions curves from these compounds are shown in Supplementary Figure S3."}, "PFCDPK1(P.falciparum)": {"molecular_target": "T15, PFCDPK1(P.falciparum) (Plasmodium falciparum, UniProt P62344)", "T15 construct": "purchased DiscoverX (KINOMEscan)", "assay": "kinome scan", "type": "binding", "conditions": "10 µM", "procedure": "as §1, §2"}, "PFPK5(P.falciparum)": {"molecular_target": "T16, PFPK5(P.falciparum) (Plasmodium falciparum, UniProt P61075)", "T16 construct": "purchased DiscoverX (KINOMEscan)", "assay": "kinome scan", "type": "binding", "conditions": "10 µM", "procedure": "as §1, §2"}, "PRP4": {"molecular_target": "T17, PRP4 (Homo sapiens, UniProt Q13523)", "T17 construct": "purchased DiscoverX (KINOMEscan)", "assay": "kinome scan", "type": "binding", "conditions": "10 µM", "procedure": "as §1, §2"}, "PIK3CA(H1047L)": {"molecular_target": "T18, PIK3CA(H1047L) (Homo sapiens, UniProt P42336, H1047L)", "T18 construct": "purchased DiscoverX (KINOMEscan)", "T18 sequence (P42336 whole entry H1047L)": "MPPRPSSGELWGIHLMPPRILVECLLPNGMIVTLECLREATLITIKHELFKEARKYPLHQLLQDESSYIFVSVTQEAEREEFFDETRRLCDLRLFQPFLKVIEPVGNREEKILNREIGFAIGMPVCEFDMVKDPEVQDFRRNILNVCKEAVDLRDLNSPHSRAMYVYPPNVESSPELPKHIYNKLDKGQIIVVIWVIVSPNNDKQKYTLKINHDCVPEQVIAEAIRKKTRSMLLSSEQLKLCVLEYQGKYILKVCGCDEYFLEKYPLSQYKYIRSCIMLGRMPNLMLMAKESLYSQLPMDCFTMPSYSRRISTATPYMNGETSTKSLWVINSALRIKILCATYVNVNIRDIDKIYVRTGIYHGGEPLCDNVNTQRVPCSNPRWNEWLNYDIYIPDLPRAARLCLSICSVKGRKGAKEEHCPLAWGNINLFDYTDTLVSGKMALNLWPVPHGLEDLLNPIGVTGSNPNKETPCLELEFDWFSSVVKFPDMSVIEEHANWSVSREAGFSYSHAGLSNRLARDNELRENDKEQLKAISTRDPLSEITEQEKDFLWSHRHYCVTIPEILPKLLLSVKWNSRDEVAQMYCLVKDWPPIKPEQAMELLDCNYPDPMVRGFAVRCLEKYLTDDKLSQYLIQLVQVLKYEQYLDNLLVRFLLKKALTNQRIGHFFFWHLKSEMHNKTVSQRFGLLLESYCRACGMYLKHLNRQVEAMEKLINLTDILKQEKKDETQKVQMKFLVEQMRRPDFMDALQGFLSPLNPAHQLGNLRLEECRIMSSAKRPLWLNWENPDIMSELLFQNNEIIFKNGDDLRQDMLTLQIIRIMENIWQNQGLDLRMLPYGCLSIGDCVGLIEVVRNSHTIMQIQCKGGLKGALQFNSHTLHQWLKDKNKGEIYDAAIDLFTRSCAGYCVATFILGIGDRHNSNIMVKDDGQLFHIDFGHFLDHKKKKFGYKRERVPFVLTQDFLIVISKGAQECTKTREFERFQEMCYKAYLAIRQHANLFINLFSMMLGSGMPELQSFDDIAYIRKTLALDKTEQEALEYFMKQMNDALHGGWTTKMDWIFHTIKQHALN", "assay": "kinome scan", "type": "binding", "conditions": "10 µM"}, "RIOK1": {"molecular_target": "T19, RIOK1 (Homo sapiens, UniProt Q9BRS2)", "T19 construct": "purchased DiscoverX (KINOMEscan)", "T19 sequence (Q9BRS2 whole entry)": "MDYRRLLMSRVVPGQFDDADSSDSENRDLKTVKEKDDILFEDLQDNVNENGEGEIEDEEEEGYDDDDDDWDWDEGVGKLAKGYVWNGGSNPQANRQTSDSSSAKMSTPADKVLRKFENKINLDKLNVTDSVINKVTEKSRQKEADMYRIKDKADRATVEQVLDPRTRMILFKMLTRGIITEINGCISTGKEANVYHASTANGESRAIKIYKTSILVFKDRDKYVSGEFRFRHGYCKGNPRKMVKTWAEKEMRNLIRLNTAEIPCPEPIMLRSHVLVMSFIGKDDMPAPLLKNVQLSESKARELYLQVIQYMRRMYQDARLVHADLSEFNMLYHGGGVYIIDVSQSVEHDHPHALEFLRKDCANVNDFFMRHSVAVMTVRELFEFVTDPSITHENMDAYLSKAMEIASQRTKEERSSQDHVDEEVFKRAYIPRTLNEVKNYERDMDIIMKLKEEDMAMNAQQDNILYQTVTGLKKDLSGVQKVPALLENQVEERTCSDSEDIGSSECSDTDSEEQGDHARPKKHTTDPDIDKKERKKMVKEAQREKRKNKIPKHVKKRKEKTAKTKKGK", "assay": "kinome scan", "type": "binding", "conditions": "10 µM"}, "[1]": {"molecular_target": "T20, RSK4(Kin.Dom.2-C-terminal) (Homo sapiens, UniProt Q9UK32)", "T20 construct": "RSK4(Kin.Dom.2-C-terminal); purchased DiscoverX (KINOMEscan)", "T20 sequence (Q9UK32 426-683 limits assumed)": "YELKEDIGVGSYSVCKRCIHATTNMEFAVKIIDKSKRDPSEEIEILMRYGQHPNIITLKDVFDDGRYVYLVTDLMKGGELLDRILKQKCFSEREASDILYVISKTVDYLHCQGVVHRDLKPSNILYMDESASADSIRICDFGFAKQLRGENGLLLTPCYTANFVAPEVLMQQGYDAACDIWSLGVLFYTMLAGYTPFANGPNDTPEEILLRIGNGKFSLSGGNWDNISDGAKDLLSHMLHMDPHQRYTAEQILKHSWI", "assay": "kinome scan", "type": "binding", "conditions": "10 µM"}, "SRPK2": {"molecular_target": "T21, SRPK2 (Homo sapiens, UniProt P78362)", "T21 construct": "purchased DiscoverX (KINOMEscan)", "T21 sequence (P78362 whole entry)": "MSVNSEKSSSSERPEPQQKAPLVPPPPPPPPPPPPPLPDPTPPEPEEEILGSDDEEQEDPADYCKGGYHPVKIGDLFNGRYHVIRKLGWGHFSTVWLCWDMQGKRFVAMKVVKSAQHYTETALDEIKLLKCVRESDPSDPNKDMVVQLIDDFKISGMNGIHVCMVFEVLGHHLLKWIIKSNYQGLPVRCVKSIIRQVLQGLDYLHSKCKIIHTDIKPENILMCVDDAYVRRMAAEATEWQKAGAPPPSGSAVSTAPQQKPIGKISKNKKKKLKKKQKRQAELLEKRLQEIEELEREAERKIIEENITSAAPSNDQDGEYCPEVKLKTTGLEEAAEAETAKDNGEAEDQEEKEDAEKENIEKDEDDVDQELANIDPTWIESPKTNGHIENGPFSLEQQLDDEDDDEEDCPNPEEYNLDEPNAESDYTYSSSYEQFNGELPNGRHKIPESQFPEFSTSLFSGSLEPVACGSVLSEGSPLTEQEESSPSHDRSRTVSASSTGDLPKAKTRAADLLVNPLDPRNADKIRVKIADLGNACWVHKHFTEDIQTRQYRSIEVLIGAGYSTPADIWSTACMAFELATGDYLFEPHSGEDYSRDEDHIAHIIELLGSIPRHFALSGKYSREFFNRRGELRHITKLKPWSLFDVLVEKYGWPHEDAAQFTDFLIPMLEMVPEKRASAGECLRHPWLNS", "assay": "kinome scan", "type": "binding", "conditions": "10 µM"}, "[2]": {"test_system": "Estrogen receptor alpha signaling", "design": "method as in CHEMBL1794542", "conditions": "reported activity, data mining; ref CHEMBL1794542; cited from earlier work"}},
  "data": [
    {"smiles": "Nc1ccc(N=Nc2ccccc2)c(N)n1", "note": "[phenazopyridine, 2,6-diamino-3-(phenylazo)pyridine]", "values": [
      {"measurement": "kinase inhibition", "setting": "CAMK2G", "result": 100},
      {"measurement": "kinase inhibition", "setting": "CDK4-cyclinD1", "result": 100},
      {"measurement": "kinase inhibition", "setting": "DAPK3", "result": 100},
      {"measurement": "kinase inhibition", "setting": "DDR2", "result": 100},
      {"measurement": "kinase inhibition", "setting": "EPHA7", "result": 91},
      {"measurement": "kinase inhibition", "setting": "ERK8", "result": 100},
      {"measurement": "remaining binding (% of control)", "setting": "FLT3(K663Q); FLT3(K663Q), 10 µM", "result": 21},
      {"measurement": "remaining binding at 10 µM", "setting": "FLT3(K663Q); FLT3 as printed (Table S4: FLT3(K663Q)), read-out: % Of control", "result": 21, "unit": "%"},
      {"measurement": "kinase inhibition", "setting": "ITK", "result": 97},
      {"measurement": "kinase inhibition", "setting": "JNK1", "result": 78},
      {"measurement": "kinase inhibition", "setting": "JNK2", "result": 94},
      {"measurement": "kinase inhibition", "setting": "MAP4K4", "result": 100},
      {"measurement": "kinase inhibition", "setting": "MTOR", "result": 74},
      {"measurement": "kinase inhibition", "setting": "NEK3", "result": 100},
      {"measurement": "kinase inhibition", "setting": "CDC2L5", "result": 100},
      {"measurement": "kinase inhibition", "setting": "PFCDPK1(P.falciparum)", "result": 100},
      {"measurement": "kinase inhibition", "setting": "PFPK5(P.falciparum)", "result": 89},
      {"measurement": "kinase bound, % of DMSO control", "setting": "PRP4", "result": 100},
      {"measurement": "kinase inhibition", "setting": "PIK3CA(H1047L)", "result": 80},
      {"measurement": "remaining binding (% of control)", "setting": "RIOK1", "result": 93},
      {"measurement": "kinase inhibition", "setting": "[1]", "result": 81},
      {"measurement": "kinase inhibition", "setting": "SRPK2", "result": 100},
      {"measurement": "Concentration", "setting": "[2]", "result": 3.1, "unit": "µM"}
    ]}
  ]
}
